Data set [1] concerns LDLR ligand uptake activity in HepG2 cells. The data set is described as follows: DiI-LDL uptake (LDLR ligand uptake activity) in HepG2 cells. Note: key: +: slightly increased fluorescent intensity over control; ++: modestly increased fluorescent intensity over control; +++: strongly increased fluorescent intensity over control. The class given is cell-based, Human. Particulars: 20 hours, B, compound dose ≦ 40 μM. As to the method:
HepG2 cells (2×10^5 cells/well) in 24-well culture plates were treated with various compounds at indicated concentrations for 20 hours. The fluorescent 1,1′-dioctadecyl-3,3,3′,3′-tetramethylindocarbocyanin perchlorate (DiI-LDL) (Biomedical Technologies, Stoughton, Mass.) at a concentration of 2 μg/mL was added to cells at the end of treatment. After 4 hours, the medium was removed, cells were washed with cold PBS, and were examined immediately under a fluorescent microscope (Nikon) at 200× amplification. The fluorescent intensity in compound-treated cells was compared to that in untreated control cells. […] In these experiments berberine chloride was used for comparison.

The subject of data set [2] is Wister male rats under a high fat and high cholesterol diet. Description: Lipid lowering and body weight effects of (14R,13S)-CRDL hydrochloride salt in Wister rats. The class given is in vivo. As to the method: Male Wister rats were used as another animal model to examine the in vivo effects of (14R,13S)-CRDL in plasma lipid levels.
In one experiment, 18 Wister male rats under a high fat and high cholesterol diet were divided into 2 groups. One group was given (14R,13S)-CRDL hydrochloride salt orally at a daily dose of 75 mg/kg by an orogastric tube for 4 weeks, and the control group received daily treatment of equal amount of vehicle (0.1 M sodium phosphate, pH 3.5). Serum lipid levels were measured weekly.
At the end of treatment, Rats were sacrificed and blood and sera were collected to measure several critical parameters for liver function and kidney function. […] Kidney function and blood glucose level were not changed by the treatment (FIG. 11E).
The food intake and body weight gains were measured every week during the 4-week treatment period. […] In the first week, the amount of food consumed was decreased in CRDL-treated group. […] The ability of CRDL to activate AMPK signaling pathway to increase energy expenditure and to reduce fat accumulation likely contributes to this weight reducing effect.

Data set [3] relates to hypercholesterolemic hamsters. The data set is described as follows: In vivo lipid lowering of (14R,13S)-CRDL in hamsters on high cholesterol diet. The arrangement: species or system Golden Syrian male hamsters. The following applies: 10 mg/kg daily i.p., 17 days. As to the method: In another experiment, 18 Golden Syrian male hamsters under a high cholesterol (HC) diet were divided into two treatment groups of i.p. One group was treated with (14R,13S)-CRDL at a daily dose of 10 mg/kg and the control group received equal amount of vehicle.
The HC diet markedly damaged the liver function of the hamsters, which was evident by elevated alanine aminotransaminase (ALT) and aspartate aminotransaminase (AST) in blood. (14R,13S)-CRDL treatment ameliorated the liver function under the HC diet and lowered the serum level of ALT by 60% and lowered the serum level of AST by 30% compared to control (FIG. 10B).

Data set [4] deals with LDLR mRNA expression in HepG2 cells. Description: LDLR mRNA expression in HepG2 cells, semi-quantitative RT-PCR. The class given is cell-based, Human. Particulars: 8 hours, indicated doses, corrected by GAPDH mRNA (FIG. 3). On the procedure:
HepG2 cells obtained from American Tissue Culture Collection (Manassas, Va., USA) were seeded in 6-well culture plates at a density of 0.8×10^6 cells/well cultured in EMEM containing 0.5% FBS and were treated with each purified compound at indicated doses for 8 hours. Total RNA was isolated, and 2 μg per sample was reverse transcribed with random primers using M-MLV (Promega) at 37° C. for 1 hour. PCR was carried out at 94° C. for 30 sec, 60° C. for 30 sec, and 72° C. for 30 sec with initial activation of the enzyme at 94° C. for 1 minute. Thirty cycles were performed for LDLR and GAPDH. PCR was performed using primers HLDLR-up and HLDLR-lo for LDLR and primers HGAPDH-up and HGAPDH-lo for GAPDH. The PCR products were separated on a 1% agarose gel and the band intensity was quantitated. LDLR mRNA levels were corrected by measuring GAPDH mRNA levels.
After the treatment, a portion of cells was harvested for total RNA, and another portion of cells was used for TG measurement. The LDLR mRNA levels were assessed by semi quantitative RT-PCR, and the cellular TG content was determined as described above.

The mark [5] stands for this setting: (14R,13S)-CRDL hydrochloride salt orally 75 mg/kg daily, 4 weeks.
Setting [6] is: end of 4-week treatment, 75 mg/kg daily orally.
[7] abbreviates: end of 4-week treatment, 75 mg/kg daily orally, vs control group.
Setting [8] is: HC diet, compared to untreated group.

SMILES strings stand for the structures.

For `COc1cc2c(cc1OC)[C@H]1[C@@H](C)c3ccc(OC)c(OC)c3CN1CC2` [CRDL, 14R,13S-(+)-corydaline], the “Activity on DiI-LDL uptake” value in data set [1] is “++”. In addition, the body weight result in data set [2] (4 weeks, 75 mg/kg daily orally, high fat and high cholesterol diet) is “maintained constant”. For the same molecule, in data set [2] (setting [5]), the “LDL-c level, % of control” value is listed as 25.6%; the “LDL-c level, % of day 0” value came out at 22.4%; the “TC, % compared to the control group” value was determined as 33.8%; the “TC, % of the pretreatment level” value stood at 33.0%. Besides, in data set [2] (setting [5]), the “TG level, % of the control” value was determined as 29%; the “TG level, % of the pretreatment level (day 0)” value amounted to 27%; the “adverse effects during the entire treatment” value is recorded as “No any adverse effects were observed”. In data set [2] (setting [6]), the blood glucose level result is “not changed” and the “kidney function (BUN, CREA)” value is given as “not changed”. Moreover, in data set [2] (setting [7]), the “serum level of ALT” value is reported as “statistically lower” and the “serum level of AST” value is given as “statistically lower”. In addition, the “adverse effects during the drug treatment” value in data set [3] is given as “no adverse effects were observed”. In addition, in data set [3] (HC diet), the “blood level of glucose” value is given as “not changed” and the “blood level of urea nitrogen (BUN)” value is recorded as “not changed”. Besides, in data set [3] (HC diet, compared to control), the “lowering of serum level of ALT” value amounted to 60% and the “lowering of serum level of AST” value is 30%. In data set [3] (setting [8]), the “reduction of plasma TC” value turned out to be 41.9%, the “reduction of plasma TG” value is reported as 46.0% and the “reduction of plasma non-HDL-c” value is listed as 50%. Moreover, the “reduction of level of creatinine (CREA)” value in data set [3] (HC diet, p<0.001) is given as 20%. For the same molecule, the “LDLR mRNA expression” value in data set [4] is “potent and dose-dependent effects”.

Values taken from US8815900B2, “Compounds and compositions for reducing lipid levels” (CVI Pharmaceuticals Limited, priority 2007, dated 2014).
